The values that follow come from the supplement of paper PMC10702517.

This data set can be described thus: chemical recovery from spiked human plasma; higher = better extraction. To be noted: pooled human plasma.
Where [1] appears, read: extraction method: SPE only (HLB 96-well).
Where [2] appears, read: extraction method: solvent precipitation (ACN + hexane).
[3] abbreviates: extraction method: PES+SPE (3 d PDMS equilibration then HLB SPE).
Setting [4] is: extraction method: SPE only (HLB 96-well), PES comparison experiment.

± gives the standard deviation.

Regarding `CC[C@H](C)[C@H]1O[C@]2(C=C[C@@H]1C)C[C@@H]1C[C@@H](C/C=C(\C)[C@@H](O[C@H]3C[C@H](OC)[C@@H](O[C@H]4C[C@H](OC)[C@@H](NC)[C@H](C)O4)[C@H](C)O3)[C@@H](C)/C=C/C=C3\CO[C@@H]4[C@H](O)C(C)=C[C@@H](C(=O)O1)[C@]34O)O2` [Emamectin-B1a], the chemical recovery under setting [1] was determined as 17.2 ± 7.2%.
With `Nc1nc(=O)n([C@@H]2CS[C@H](CO)O2)cc1F` [Emtricitabine], the chemical recovery is, setting by setting: under setting [1], 14.2 ± 4.3%; under setting [2], 71.1 ± 4.1%.
For `O=C1C2CC3C1C1(Cl)C(Cl)C4(Cl)C2C3C1(Cl)C4(Cl)Cl` (stereo not drawn) [Endrin ketone], the chemical recovery under setting [1] worked out at 7.89 ± 2.1% and the chemical recovery under setting [2] came to 15.3 ± 1.4%.
`CCCCc1ncc(/C=C(\Cc2cccs2)C(=O)O)n1Cc1ccc(C(=O)O)cc1` [Eprosartan] came in with a chemical recovery under setting [1] of 44.3 ± 4.6%.
In the case of `CC(C)[C@H](C(=O)O[C@H](C#N)c1cccc(Oc2ccccc2)c1)c1ccc(Cl)cc1` [Esfenvalerate], the chemical recovery under setting [2] worked out at 118 ± 16%.
As to `CCOC(=O)c1ccc(O)cc1` [Ethylparaben], the chemical recovery reads like this: under setting [3], 56.1 ± 4%; under setting [1], 45.3 ± 3%; under setting [2], 66.3 ± 2.4%.
Regarding `CCOC(=O)C(C#N)=C(c1ccccc1)c1ccccc1` [Etocrylene], the chemical recovery by setting is: under setting [3], 35.4 ± 4.9%; under setting [1], 36.7 ± 2.9%; under setting [2], 49.9 ± 9.2%.
Turning to `CCOc1ccc(C(C)(C)COCc2cccc(Oc3ccccc3)c2)cc1` [Etofenprox], the chemical recovery under setting [1] stood at 4.05 ± 1.4% and the chemical recovery under setting [2] was 5.02 ± 0.29%.
Consider `C=CCc1ccc(O)c(OC)c1` [Eugenol], for which the chemical recovery under setting [3] was determined as 42.8 ± 4.4%, the chemical recovery under setting [1] was determined as 44.8 ± 1.8% and the chemical recovery under setting [2] came out at 50.3 ± 6.1%.
The matching figures for `CSC1=N[C@@](C)(c2ccccc2)C(=O)N1Nc1ccccc1` [Fenamidone]: 60.6 ± 12%, 57.8 ± 2.2% and 79.4 ± 2.9%.
Regarding `CC1(C(=O)Nc2ccc(O)c(Cl)c2Cl)CCCCC1` [Fenhexamid], under setting [2], the chemical recovery stood at 66.2 ± 1.5%.
As for `CC(Oc1ccc(Oc2nc3ccc(Cl)cc3o2)cc1)C(=O)O` (stereo not drawn) [Fenoxaprop-P], the chemical recovery reads like this: under setting [3], 42.2 ± 5%; under setting [1], 26.7 ± 2.6%.
In the case of `CC(Cc1ccc(C(C)(C)C(=O)O)cc1)CN1C[C@@H](C)O[C@@H](C)C1` (stereo partly drawn) [Fenpropimorph-acid], the chemical recovery reads like this: under setting [3], 41.2 ± 4.4%; under setting [1], 42.9 ± 4.1%; under setting [2], 67.5 ± 3.3%.
Take `COP(=S)(OC)Oc1ccc(SC)c(C)c1` [Fenthion]: the chemical recovery by setting is: under setting [3], 1.29 ± 0.38%; under setting [1], 59.7 ± 2.1%; under setting [4], 47 ± 8.3%.
Regarding `CN(C)C(=O)Nc1ccccc1` [Fenuron], the chemical recovery runs as follows: under setting [3], 49.2 ± 5%; under setting [1], 46.9 ± 2.6%; under setting [4], 49.4 ± 5.9%; under setting [2], 74.6 ± 2.4%.
For `N#CCNC(=O)c1cnccc1C(F)(F)F` [Flonicamid], the chemical recovery stood at 53.1 ± 3.7% under setting [3], 46.9 ± 1.9% under setting [1] and 73.8 ± 3.3% under setting [2].
For `Cc1cc(C(F)(C(F)(F)F)C(F)(F)F)ccc1NC(=O)c1cccc(I)c1C(=O)NC(C)(C)CS(C)(=O)=O` [Flubendiamide], the chemical recovery reads like this: under setting [1], 25.7 ± 6.4%; under setting [2], 53.1 ± 4.4%.
In the case of `N#Cc1c[nH]cc1-c1cccc2c1OC(F)(F)O2` [Fludioxonil], the chemical recovery is, setting by setting: under setting [3], 67.2 ± 4.7%; under setting [1], 40.1 ± 3.5%; under setting [2], 51.4 ± 2.9%.
As to `CC(=O)OCC(=O)[C@@]1(O)CC[C@H]2[C@@H]3CCC4=CC(=O)CC[C@]4(C)[C@@]3(F)[C@@H](O)C[C@@]21C` [Fludrocortisone-21-acetate], under setting [4], the chemical recovery was found to be 46.7 ± 4.8%.
As for `O=C(O)c1ccccc1Nc1cccc(C(F)(F)F)c1` [Flufenamic-acid], the chemical recovery runs as follows: under setting [3], 58 ± 5.7%; under setting [1], 44.9 ± 11%; under setting [2], 51.1 ± 1.4%.
Consider `O=C(NC(=O)c1c(F)cccc1F)Nc1ccc(Oc2ccc(C(F)(F)F)cc2Cl)cc1F` [Flufenoxuron], for which the chemical recovery under setting [1] amounted to 25.7 ± 5.2% and the chemical recovery under setting [4] was 24 ± 6.8%.
Regarding `C#CCN1C(=O)COc2cc(F)c(N3C(=O)C4=C(CCCC4)C3=O)cc21` [Flumioxazin], the chemical recovery runs as follows: under setting [3], 47.2 ± 4.8%; under setting [1], 40.9 ± 0.44%; under setting [4], 38.5 ± 7.6%; under setting [2], 5.96 ± 5.2%.
Regarding `CC1(C)O[C@@H]2C[C@H]3[C@@H]4C[C@H](F)C5=CC(=O)C=C[C@]5(C)[C@@]4(F)[C@@H](O)C[C@]3(C)[C@]2(C(=O)CO)O1` [Fluocinolone acetonide], under setting [4], the chemical recovery was 46.1 ± 5.2%.
On to `O=C(NCc1ncc(C(F)(F)F)cc1Cl)c1c(Cl)cccc1Cl` [Fluopicolide], for which the chemical recovery was found to be 65.8 ± 11% under setting [3], 58.1 ± 3.7% under setting [1] and 79.1 ± 2.3% under setting [2].
With `O=C(NCCc1ncc(C(F)(F)F)cc1Cl)c1ccccc1C(F)(F)F` [Fluopyram], the chemical recovery under setting [2] was 67.8 ± 2.1%.
Under setting [4], `c1ccc2c(c1)Cc1ccccc1-2` [Fluorene] showed a chemical recovery of 11 ± 2.6%.
Under setting [1], `CC(C)(C)c1ccc2oc(-c3ccc(-c4nc5cc(C(C)(C)C)ccc5o4)s3)nc2c1` [Fluorescent-Brightener-184] registered a chemical recovery of 0.938 ± 0.39%.
Consider `OCCN1CCN(CCC=C2c3ccccc3Sc3ccc(C(F)(F)F)cc32)CC1` [Flupentixol], for which, under setting [2], the chemical recovery worked out at 51.7 ± 2.5%.
Take `O=C1C=C(N(Cc2ccc(Cl)nc2)CC(F)F)CO1` [Flupyradifurone]: the chemical recovery by setting is: under setting [3], 43.9 ± 3.3%; under setting [1], 39.3 ± 3.1%; under setting [2], 76.9 ± 2.6%.
Regarding `CC(C)Oc1cccc(NC(=O)c2ccccc2C(F)(F)F)c1` [Flutolanil], the chemical recovery is, setting by setting: under setting [3], 53.5 ± 4.5%; under setting [1], 38.9 ± 0.5%; under setting [2], 60.8 ± 4.7%.
For `OC(Cn1cncn1)(c1ccc(F)cc1)c1ccccc1F` (stereo not drawn) [Flutriafol], the chemical recovery by setting is: under setting [3], 43.2 ± 5.4%; under setting [1], 41.9 ± 3.3%; under setting [2], 78.9 ± 4%.
Consider `Cn1cc(C(=O)Nc2ccccc2-c2cc(F)c(F)c(F)c2)c(C(F)F)n1` [Fluxapyroxad], for which the chemical recovery by setting is: under setting [3], 69.6 ± 10%; under setting [1], 65 ± 3%; under setting [2], 79.9 ± 1.2%.
Take `COc1cc(OC)nc(NC(=O)NS(=O)(=O)c2cc(NC=O)ccc2C(=O)N(C)C)n1` [Foramsulfuron]: the chemical recovery under setting [2] came to 69 ± 4.2%.
As to `CNC(=O)Oc1cccc(/N=C/N(C)C)c1` [Formetanate], the chemical recovery is, setting by setting: under setting [1], 8.98 ± 3.5%; under setting [2], 2.27 ± 3.9%.
Consider `CC1COCc2cc3c(cc21)C(C)(C)C(C)C3(C)C` (stereo not drawn) [Galaxolide], for which the chemical recovery worked out at 39.1 ± 9.8% under setting [3], 13.7 ± 2.7% under setting [1] and 99.6 ± 18% under setting [2].
On to `CC1(C)[C@@H](O[C@H]2O[C@H](C(=O)O)[C@@H](O)[C@H](O)[C@H]2O[C@@H]2O[C@H](C(=O)O)[C@@H](O)[C@H](O)[C@H]2O)CC[C@]2(C)[C@H]3C(=O)C=C4[C@@H]5C[C@@](C)(C(=O)O)CC[C@]5(C)CC[C@@]4(C)[C@]3(C)CC[C@@H]12` [Glycyrrhizin], for which the chemical recovery reads like this: under setting [3], 14.5 ± 4.5%; under setting [1], 16.6 ± 2.5%; under setting [2], 0.719 ± 0.66%.
As for `N=C(N)NC(=O)Cc1c(Cl)cccc1Cl` [Guanfacine], the chemical recovery is, setting by setting: under setting [3], 43.1 ± 2.6%; under setting [1], 44 ± 3.3%; under setting [2], 57.9 ± 5%.
As to `O=C(O)C(F)(OC(F)(F)C(F)(F)C(F)(F)F)C(F)(F)F` (stereo not drawn) [HFPO-DA], the chemical recovery by setting is: under setting [1], 30.7 ± 3%; under setting [2], 67.4 ± 3.1%.
For the compound `CC(Oc1ccc(Oc2ncc(C(F)(F)F)cc2Cl)cc1)C(=O)O` (stereo not drawn) [Haloxyfop-P], the chemical recovery under setting [3] stood at 41 ± 2.6%, the chemical recovery under setting [1] was found to be 33.1 ± 3.1% and the chemical recovery under setting [2] turned out to be 68.1 ± 2.8%.
In the case of `Cc1nccc2c1[nH]c1ccccc12` [Harman], the chemical recovery is 36.2 ± 5.5% under setting [3], 34.9 ± 2.5% under setting [1], 48.2 ± 6% under setting [4] and 74.4 ± 3.2% under setting [2].
Consider `COc1ccc2c(c1)[nH]c1c(C)nccc12` [Harmine], for which the chemical recovery was found to be 37.8 ± 5.3% under setting [3], 37.3 ± 2.9% under setting [1] and 48.6 ± 4.2% under setting [4].
For the compound `ClC1=C(Cl)C2(Cl)C3C4OC4C(Cl)C3C1(Cl)C2(Cl)Cl` (stereo not drawn) [Heptachlor epoxide], the chemical recovery under setting [1] was determined as 1.06 ± 0.28% and the chemical recovery under setting [2] came to 18.7 ± 2.8%.
Under setting [1], `CCCCCCCCCCCCCCCC[N+](C)(C)C` [Hexadecyltrimethylammonium] returned a chemical recovery of 50.1 ± 19%.
Turning to `CCCCCCN` [Hexylamine], the chemical recovery by setting is: under setting [3], 3.2 ± 1.1%; under setting [1], 8.65 ± 5.7%; under setting [2], 19.7 ± 6%.
In the case of `CC1CC(OC(=O)c2ccccc2O)CC(C)(C)C1` (stereo not drawn) [Homosalate], the chemical recovery under setting [1] is 0.169 ± 0.033% and the chemical recovery under setting [2] came to 41 ± 2.4%.
Turning to `c1ccc(NNc2ccccc2)cc1` [Hydrazobenzene], under setting [1], the chemical recovery was 2.13 ± 0.29%.
As to `CC(=O)OCC(=O)[C@@]1(O)CC[C@H]2[C@@H]3CCC4=CC(=O)CC[C@]4(C)[C@H]3[C@@H](O)C[C@@]21C` [Hydrocortisonacetate], the chemical recovery under setting [4] amounted to 47.4 ± 6.2%.
`CCN(CCO)CCCC(C)Nc1ccnc2cc(Cl)ccc12` (stereo not drawn) [Hydroxychloroquine] yielded a chemical recovery under setting [4] of 9.45 ± 7.5%.
As for `N=C1NCCN1Cc1ccc(Cl)nc1` [Imidacloprid-guanidine], the chemical recovery under setting [1] is 26.9 ± 4.3% and the chemical recovery under setting [2] was 73 ± 3%.
On to `O=C(O)Cc1c[nH]c2ccccc12` [Indole-3-acetic acid], for which the chemical recovery under setting [4] turned out to be 79.9 ± 19%.
On to `O=C(O)/C=C/c1c[nH]c2ccccc12` [Indole-3-acrylic-acid], for which the chemical recovery is, setting by setting: under setting [3], 37.5 ± 5%; under setting [1], 45.2 ± 13%.
With `c1ccc2[nH]ccc2c1` [Indole], the chemical recovery runs as follows: under setting [1], 8.76 ± 5.2%; under setting [2], 52.5 ± 14%.
Take `CC(C)C1CCC(Cc2ccc(Cl)cc2)C1(O)Cn1cncn1` (stereo not drawn) [Ipconazole]: the chemical recovery is, setting by setting: under setting [3], 56.7 ± 6%; under setting [1], 45.5 ± 5.7%; under setting [2], 75.8 ± 5.9%.
`CC(C)NC(=O)N1CC(=O)N(c2cc(Cl)cc(Cl)c2)C1=O` [Iprodione]: the chemical recovery by setting is: under setting [1], 28.3 ± 5.6%; under setting [2], 6.49 ± 2.1%.
With `CCC(Cc1ccccc1)(C(=O)c1ccc(N2CCOCC2)cc1)N(C)C` (stereo not drawn) [Irgacure-369], the chemical recovery is, setting by setting: under setting [3], 19.4 ± 3.7%; under setting [1], 36.8 ± 1.1%; under setting [2], 77.2 ± 5.5%.
`CCCCCCCCSc1nc(Nc2cc(C(C)(C)C)c(O)c(C(C)(C)C)c2)nc(SCCCCCCCC)n1` [Irganox-565] gave a chemical recovery under setting [1] of 0.236 ± 0.16%.
